Reference: patent US10377791B2, “Therapeutically active estratrienthiazole derivatives as inhibitors of 17 B-hydroxysteroid dehydrogenase, type 1” (FORENDO PHARMA LTD, priority 2013, dated 2019)
Where “and” joins values, the source holds several entries; their conditions need not be identical. Equal entries are not always repeated. Structures can show the parent of a compound that is named as a salt. Where two headings read alike, the source gives them in different places.

Assays:
[1] = target: T1, recombinant human 17β-HSD2 (Homo sapiens, UniProt P37059); assay: Inhibition of recombinant human 17β-HSD2; assay type: biochemical; conditions: for inhibition at 1 µM: read-out: 17β-HSD2 Inhibition % at 1 μM
T1 construct: made in house; host or cells: Sd9 (Sf9) insect cells, baculovirus (Bac to Bac Expression System)
T1 sequence (P37059 1-387): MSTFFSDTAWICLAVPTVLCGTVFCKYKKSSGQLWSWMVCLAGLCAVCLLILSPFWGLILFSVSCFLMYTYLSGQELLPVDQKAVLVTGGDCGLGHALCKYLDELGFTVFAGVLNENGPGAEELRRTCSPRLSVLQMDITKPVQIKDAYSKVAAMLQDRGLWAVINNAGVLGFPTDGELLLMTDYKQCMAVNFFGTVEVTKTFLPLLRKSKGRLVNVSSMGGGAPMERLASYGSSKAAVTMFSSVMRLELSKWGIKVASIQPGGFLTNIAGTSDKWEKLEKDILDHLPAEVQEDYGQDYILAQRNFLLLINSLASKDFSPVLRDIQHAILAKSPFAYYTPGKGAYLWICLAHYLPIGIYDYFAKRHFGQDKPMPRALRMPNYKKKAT
Experimental: Similarly to 17β-HSD1 the Recombinant baculovirus was generated by the “Bac to Bac Expression System” (Invitrogen). Recombinant bacmid was transfected to Sd9 insect cells using “Cellfectin Reagent” (Invitrogen). 60 h later cells were harvested and supernatant were fractionated by the following protocol: • cells were dissolved into 40 ml of A-buffer (40 mM TRIS, pH8.0, 20% glycerol, 20 μM NAD, 0.4 mM PMSF, 150 mM NaCl, 0.5% dodecyl-β-maltoside+protease inhibitor cocktail) • cells were sonicated • lysate was incubated on ice for 15 min • lysate was centrifuged 5000 rpm 15 min, +4° C. • centrifugation of the supernatant 180 000 g 30 min, +4° C. • pellet was dissolved into 8 ml of A-buffer • not resuspended material was removed by centrifugation 5000 rpm 15 min, +4° C. • the clear supernatant was divided into 100 μl aliquots and were stored frozen until determination of enzymatic activity.
The amount of 17β-HSD2 was analysed by immunoblotting and total protein concentration of each extract batch was determined.
Recombinant protein (4 μg/ml) was incubated in 20 mM KH2PO4 pH 8.5 with 50 nM estradiol (including 800 000 cpm/ml of ^3H-estradiol) and 1 mM NADH for 30 min at RT, in the presence of the potential inhibitor at concentrations 1 μM or 0.1 μM. Inhibitor stock solutions were prepared in DMSO. Final concentration of DMSO was adjusted to 1% in all samples. The enzyme reaction was stopped by addition of 10% trichloroacetic acid (final concentration). Samples were centrifuged in a microtiter plate at 4000 rpm for 10 min. Supernatants were applied to reverse phase HPLC on a Waters Symmetry C18 column, equipped with a Waters Sentry Guard column. Isocratic HPLC runs were performed at RT at a flow rate of 1 ml/min in acetonitrile:water 48:52 as running solvent. Radioactivity was monitored in the eluate by a Packard Flow Scintillation Analyzer. Total radioactivity for estrone and estradiol were determined in each sample and percent conversion of estradiol to estrone was calculated according to the following formula:
(§1) [formula] Percent inhibition was calculated flowingly: % inhibition=100−% conversion

[2] = target: T2, recombinant human 17β-HSD1 (Homo sapiens, UniProt P14061); assay: Inhibition of recombinant human 17β-HSD1; assay type: biochemical; conditions: for inhibition at 1 µM: read-out: 17β-HDS1 Inhibition % at 1 μM
T2 construct: made in house; host or cells: Sd9 (Sf9) insect cells, baculovirus (Bac to Bac Expression System)
T2 sequence (P14061 1-328): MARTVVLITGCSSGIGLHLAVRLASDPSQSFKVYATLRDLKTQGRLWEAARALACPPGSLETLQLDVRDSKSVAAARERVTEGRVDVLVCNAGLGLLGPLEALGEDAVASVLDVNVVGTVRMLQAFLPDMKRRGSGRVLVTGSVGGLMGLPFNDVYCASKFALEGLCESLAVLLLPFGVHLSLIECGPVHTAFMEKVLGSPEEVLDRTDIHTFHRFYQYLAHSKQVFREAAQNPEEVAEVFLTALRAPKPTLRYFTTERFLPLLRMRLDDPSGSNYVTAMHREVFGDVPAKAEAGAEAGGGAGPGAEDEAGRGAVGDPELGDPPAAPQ
Experimental: Recombinant baculovirus was generated by the “Bac to Bac Expression System” (Invitrogen). Recombinant bacmid was transfected to Sd9 insect cells using “Cellfectin Reagent” (Invitrogen). 60 h later cells were harvested; the microsomal fraction was isolated as described by Puranen, T. J., Poutanen, M. H., Peltoketo, H. E., Vihko, P. T. and Vihko, R. K. (1994) Site-directed mutagenesis of the putative active site of human 17 β-hydroxysteroid dehydrogenase type 1. Biochem. J. 304: 289-293. Aliquots were stored frozen until determination of enzymatic activity.
Recombinant protein (1 μg/ml) was incubated in 20 mM KH2PO4 pH 7.4 with 30 nM estrone (including 800 000 cpm/ml of ^3H-estrone) and 1 mM NADPH for 30 min at RT, in the presence of the potential inhibitor at concentrations 1 μM or 0.1 μM. Inhibitor stock solutions were prepared in DMSO. Final concentration of DMSO was adjusted to 1% in all samples. The enzyme reaction was stopped by addition of 10% trichloroacetic acid (final concentration). Samples were centrifuged in a microtiter plate at 4000 rpm for 10 min. Supernatants were applied to reverse phase HPLC on a Waters Symmetry C18 column, equipped with a Waters Sentry Guard column. Isocratic HPLC runs were performed at RT at a flow rate of 1 ml/min in acetonitrile:water 48:52 as running solvent. Radioactivity was monitored in the eluate by a Packard Flow Scintillation Analyzer. Total radioactivity for estrone and estradiol were determined in each sample and percent conversion of estrone to estradiol was calculated according to the following formula:
as §1

[3] = inhibitor at 1 μM, 50 nM estradiol, 1 mM NADH, 30 min at RT
[4] = inhibitor at 1 μM, 30 nM estrone, 1 mM NADPH, 30 min at RT

Compound | inhibition at 1 µM [2, 4] [%] | inhibition at 1 µM [1, 3] [%] | other results
CC(=O)NCC(=O)Oc1ccc2c(c1)CCC1C2CC[C@]2(C)C(=O)C[C@@H](CCC(=O)Nc3ncc(C)s3)C12 (stereo partly drawn) [Compound 11, Acetylamino-acetic acid (13S,15R)-13-methyl-15-[2-(5-methylthiazol-2-ylcarbamoyl)-ethyl]-17-oxo-7,8,9,11,12,13,14,15,16,17-decahydro-6H-cyclopenta[a]phenanthren-3-yl ester] | 87 |  | 17β-HSD2 Inhibition % at 1 μM [1, 3]: 0% and 2%; 17β-HDS1 Inhibition % at 1 μM [2, 4]: 88%
Cc1cnc(NC(=O)CC[C@@H]2CC(=O)[C@@]3(C)CCC4c5ccc(OS(N)(=O)=O)cc5CCC4C23)s1 (stereo partly drawn) [Compound 4, Sulphamic acid (13S,15R)-13-methyl-15-[2-(5-methylthiazol-2-ylcarbamoyl)-ethyl]-17-oxo-7,8,9,11,12,13,14,15,16,17-decahydro-6H-cyclopenta[a]phenanthren-3-yl ester] | 82 | 3 | 
Cc1nc2cc3c(cc2o1)CCC1C3CC[C@]2(C)C(=O)C[C@@H](CCC(=O)Nc3ncc(C)s3)C12 (stereo partly drawn) [Compound 48, 3-((3R,12aS)-8,12a-dimethyl-1-oxo-2,3,3a,3b,4,5,10b,11,12,12a-decahydro-1H-cyclopenta[7,8]phenanthro[3,2-d]oxazol-3-yl)-N-(5-methylthiazol-2-yl)propanamide] | 91 | 2 | 
Cc1cnc(NC(=O)CC[C@@H]2CC(=O)[C@@]3(C)CCC4c5cc(CN6CCCC6)c(O)cc5CCC4C23)s1 (stereo partly drawn) [Compound 45, 3-((13S,15R)-3-hydroxy-13-methyl-17-oxo-2-(pyrrolidin-1-ylmethyl)-7,8,9,11,12,13,14,15,16,17-decahydro-6H-cyclopenta[a]phenanthren-15-yl)-N-(5-methylthiazol-2-yl)propanamide] | 83 | 0 | 
COc1ccc2c(c1)CCC1C2CC[C@]2(C)C(=O)/C(=C/O)[C@@H](CCC(=O)Nc3ncc(C)s3)C12 (stereo partly drawn) [Compound 97, 3-{(13S,15S)-16-[1-Hydroxy-methylidene]-3-methoxy-13-methyl-17-oxo-7,8,9,11,12,13,14,15,16,17-decahydro-6H-cyclopenta[a]phenanthren-15-yl}-N-(5-methylthiazol-2-yl)propanamide] | 92 | 11 | 
Cc1cnc(NC(=O)CC[C@@H]2CC(=O)[C@@]3(C)CCC4c5cc([N+](=O)[O-])c(O)c([N+](=O)[O-])c5CCC4C23)s1 (stereo partly drawn) [Compound 36, 3-((13S,15R)-3-hydroxy-13-methyl-2,4-dinitro-17-oxo-7,8,9,11,12,13,14,15,16,17-decahydro-6H-cyclopenta[a]phenanthren-15-yl)-N-(5-methylthiazol-2-yl)propanamide] |  |  | inhibition at 1 µM [1]: 33%; inhibition at 1 µM [2]: 87%
Cc1cnc(NC(=O)CC[C@@H]2CC(=O)[C@@]3(C)CCC4c5ccc(OC(=O)CCC(=O)O)cc5CCC4C23)s1 (stereo partly drawn) [Compound 10, Succinic acid mono-{(13S,15R)-13-methyl-15-[2-(5-methylthiazol-2-ylcarbamoyl)-ethyl]-17-oxo-7,8,9,11,12,13,14,15,16,17-decahydro-6H-cyclopenta[a]phenanthren-3-yl} ester sodium salt] | 98 | 1 | 
Cc1cnc(NC(=O)CC[C@@H]2CC(=O)[C@@]3(C)CCC4c5cc(O)c(O)cc5CCC4C23)s1 (stereo partly drawn) [Compound 68, 3-((13S,15R)-2,3-dihydroxy-13-methyl-17-oxo-7,8,9,11,12,13,14,15,16,17-decahydro-6H-cyclopenta[a]phenanthren-15-yl)-N-(5-methylthiazol-2-yl)propanamide] | 88 | 3 | 
Cc1cnc(NC(=O)CC[C@@H]2CC(=O)[C@@]3(C)CCC4c5cc([N+](=O)[O-])ccc5CCC4C23)s1 (stereo partly drawn) [Compound 84, 3-((13S,15R)-13-methyl-2-nitro-17-oxo-7,8,9,11,12,13,14,15,16,17-decahydro-6H-cyclopenta[a]phenanthren-15-yl)-N-(5-methylthiazol-2-yl)propanamide] | 93 | 1 | 
Cc1cnc(NC(=O)CC[C@@H]2CC(=O)[C@@]3(C)CCC4c5cc(N)c(O)cc5CCC4C23)s1 (stereo partly drawn) [Compound 37, 3-((13S,15R)-2-amino-3-hydroxy-13-methyl-17-oxo-7,8,9,11,12,13,14,15,16,17-decahydro-6H-cyclopenta[a]phenanthren-15-yl)-N-(5-methylthiazol-2-yl)propanamide] | 88 | 4 | 
COc1cc2c(cc1C(C)=O)C1CC[C@]3(C)C(=O)C[C@@H](CCC(=O)Nc4ncc(C)s4)C3C1CC2 (stereo partly drawn) [Compound 33, 3-((13S,15R)-2-acetyl-3-methoxy-13-methyl-17-oxo-7,8,9,11,12,13,14,15,16,17-decahydro-6H-cyclopenta[a]phenanthren-15-yl)-N-(5-methylthiazol-2-yl)propanamide] | 71 | 3 | 
Cc1cnc(NC(=O)CC[C@@H]2CC(=O)[C@@]3(C)CCC4c5ccc(OC(=O)N(C)C)cc5CCC4C23)s1 (stereo partly drawn) [Compound 25, Dimethyl-carbamic acid (13S,15R)-13-methyl-15-[2-(5-methylthiazol-2-ylcarbamoyl)-ethyl]-17-oxo-7,8,9,11,12,13,14,15,16,17-decahydro-6H-cyclopenta[a]phenanthren-3-yl ester] |  |  | inhibition at 1 µM [1]: 6%; inhibition at 1 µM [2]: 52%
Cc1cnc(NC(=O)CC[C@@H]2CC(=O)[C@@]3(C)CCC4c5ccc(OS(=O)(=O)N(C)C)cc5CCC4C23)s1 (stereo partly drawn) [Compound 23, Dimethyl-sulphamic acid (13S,15R)-13-methyl-15-[2-(5-methylthiazol-2-ylcarbamoyl)-ethyl]-17-oxo-7,8,9,11,12,13,14,15,16,17-decahydro-6H-cyclopenta[a]phenanthren-3-yl ester] | 74 | 6 | 
